Measured values: US20070275923A1, “CATIONIC PEPTIDES FOR siRNA [sequence] [sequence]” (NASTECH PHARMACEUTICAL COMPANY INC., priority 2006, published 2007)
Non-standard residues stand in square brackets, D forms with d. Residues, ends and D or L forms follow the SMILES beside them. Mal = not defined here

Experiments:
[1] = system: Mouse tail fibroblast (MTF) cells; assay: siRNA cell-uptake and MFI measured by FACS after peptide-mediated transfection of labeled siRNA; type: cell-based; conditions: for % Cell-Uptake / MFI: 200 nM labeled siRNA; for % Cell-Uptake: % of total cells with intracellular labeled siRNA; for intracellular delivery of siRNA (verbal conclusion from cell-uptake and cell viability): conclusion drawn from Table 3; for MFI: relative value, higher = more labeled siRNA entered the cell
Description: SiRNA cell uptake was measured by FACS.
For the instant example, cell-uptake, mean fluorescent intensity (MFI) and cell viability was measured for each peptide. siRNA cell-uptake was measured by the presence of intracellular labeled siRNA. The cell-uptake assay determined the percentage of cells that contain the labeled siRNA. Mean Fluorescence Intensity (MFI) was used to determine the relative mean quantity of labeled siRNA that entered the cells.
A non-transfection, siRNA alone, control was also performed.
Within Table 3, “ND” means no data.

[2] = system: Mouse tail fibroblast (MTF) cells; assay: in vitro; conditions: 200 nM siRNA, 100% represents 100% viability
Description: (§1) Mouse tail fibroblast (MTF) cells were derived from the tails of C57BL/6J mice. Tails were removed, immersed in 70% ethanol and then cut into small sections with a razor blade. The sections were washed three times with PBS and then incubated in a shaker at 37° C. with 0.5 mg/mL collagenase, 100 units/mL penicillin and 100 μg/mL streptomycin to disrupt tissue. Tail sections were then cultured in complete media (Dulbecco's Modified […] Medium with 20% FBS, 1 mM sodium pyruvate, nonessential amino acids and 100 units/mL penicillin and 100 μg/mL streptomycin) until cells were established. Cells were cultured at 37° C., 5% CO2 in complete media as outlined above.
(§2) Cells were be plated per well in a microtiter plate the day before transfection in complete media. The siRNA was be labeled, for example with a FAM, Alexa488, Alexa647 or Cy-5 conjugate. The cationic polymer peptide and siRNA were mixed in the microtiter plate complex with cells previously with OptiMEM. 7-AAD was added to each transfection to measure cell viability. Cells were transfected for three hours at 37° C., 5% CO2. The transfection mixture was removed and the cells were washed with TE buffer for about 10 minutes at 37° C., 5% CO2. Transfected cells were transferred to a V bottom plate and centrifuged. The TE buffer was removed and the transfected cells were resuspended in fluorescence activated cell sorting (FACS) buffer.
(§3) A non-transfection, siRNA alone, control was also performed. The peptide PN183 served herein as a positive cell-uptake control.
(§4) Cell-uptake is expressed as a percentage of the total cells with intracellular labeled siRNA. Cell Viability is also expressed as a percentage where 100% represents 100% viability. The MFI value is a relative value with a higher MFI value indicating a greater amount of labeled siRNA entered the cell. Within Table 3, “ND” means no data.

in vitro = conditions: C57BL/6J, mouse, mouse tail fibroblast (MTF) cells
Description: as §1, §2, §3, §4

With “PEG (2 KDa)-Mal-(Lys)20-amide ({PEG 2 kDa-Mal}-KKKKKKKKKKKKKKKKKKKK-NH2; reading uncertain) [PN926]” the “% Cell-Uptake” value ([1]; peptide concentration 1 μM) was 0.9%, the “% Cell-Uptake” value ([1]; peptide concentration 10 μM) was 1.4% and the “% Cell-Uptake” value ([1]; peptide concentration 100 μM) was 1.2%. For the same compound, the “% Cell Viability” value ([2]; peptide concentration 1 μM) was 97.9%, the “% Cell Viability” value ([2]; peptide concentration 10 μM) was 98.3% and the “% Cell Viability” value ([2]; peptide concentration 100 μM) was 98.3%.

With “PEG (10 KDa)-Mal-Trp-(Lys)30-amide (WKKKKKKKKKKKKKKKKKKKKKKKKKKKKKK; PEG 10 kDa maleimide; C-terminal amide) [PN986]” the “% Cell-Uptake” value ([1]; peptide concentration 1 μM) was 0.6%, the “% Cell-Uptake” value ([1]; peptide concentration 10 μM) was 0.8% and the “% Cell-Uptake” value ([1]; peptide concentration 100 μM) was 2.5%. The “% Cell Viability” value ([2]; peptide concentration 1 μM) was 97.4%, the “% Cell Viability” value ([2]; peptide concentration 10 μM) was 97.2% and the “% Cell Viability” value ([2]; peptide concentration 100 μM) was 93.6%.

In the case of `N=C(N)NCCC[C@@H](N)C(=O)N[C@@H](CCCNC(=N)N)C(=O)N[C@H](CCCNC(=N)N)C(=O)N[C@@H](CCCNC(=N)N)C(=O)N[C@H](CCCNC(=N)N)C(=O)N[C@@H](CCCNC(=N)N)C(=O)N[C@H](CCCNC(=N)N)C(=O)N[C@@H](CCCNC(=N)N)C(=O)N[C@H](CCCNC(=N)N)C(=O)N[C@@H](CCCNC(=N)N)C(=O)N[C@H](CCCNC(=N)N)C(=O)N[C@@H](CCCNC(=N)N)C(=O)N[C@H](CCCNC(=N)N)C(=O)N[C@@H](CCCNC(=N)N)C(=O)N[C@H](CCCNC(=N)N)C(=O)N[C@@H](CCCNC(=N)N)C(=O)N[C@H](CCCNC(=N)N)C(=O)N[C@@H](CCCNC(=N)N)C(=O)N[C@H](CCCNC(=N)N)C(=O)N[C@@H](CCCNC(=N)N)C(N)=O` [PN912, NH2-(Xaa-Arg)10-amide] (H-[dR]R[dR]R[dR]R[dR]R[dR]R[dR]R[dR]R[dR]R[dR]R[dR]R-NH2), the “intracellular delivery of siRNA (verbal conclusion from cell-uptake and cell viability)” value (shortened to “intracellular delivery of siRNA”) [1] is reported as “effective intracellular delivery of siRNA without negatively impacting cell viability”, the “% Cell-Uptake” value ([1]; peptide concentration 1 μM) is reported as 61.2% and the MFI ([1]; peptide concentration 1 μM) is reported as 4.32. For the same compound, the “% Cell-Uptake” value ([1]; peptide concentration 10 μM) was 73.3%, the MFI ([1]; peptide concentration 10 μM) was 4.72 and the “% Cell-Uptake” value ([1]; peptide concentration 100 μM) was 86.2%. For the same compound, the MFI ([1]; peptide concentration 100 μM) was 5.41, the viability at 3 h, 1 µM (in vitro) was 96.9% and the viability at 3 h, 10 µM (in vitro) was 96.1%. For the same compound, the viability at 3 h, 100 µM (in vitro) was 90%.

With “PEG (2 KDa)-Mal-(Lys-His)15-amide ({PEG 2 kDa-Mal}-KHKHKHKHKHKHKHKHKHKHKHKHKHKHKH-NH2; reading uncertain) [PN936]” the “intracellular delivery of siRNA” value [1] was “effective intracellular delivery of siRNA without negatively impacting cell viability”, the “% Cell-Uptake” value ([1]; peptide concentration 1 μM) was 37.7% and the MFI ([1]; peptide concentration 1 μM) was 2.66. For the same compound, the “% Cell-Uptake” value ([1]; peptide concentration 10 μM) was 55.3%, the MFI ([1]; peptide concentration 10 μM) was 5.86 and the “% Cell-Uptake” value ([1]; peptide concentration 100 μM) was 25.9%. The “% Cell Viability” value ([2]; peptide concentration 1 μM) was 97.5%, the “% Cell Viability” value ([2]; peptide concentration 10 μM) was 98.1% and the “% Cell Viability” value ([2]; peptide concentration 100 μM) was 28.7%.

In the case of “PEG (10 KDa)-Mal-(Lys)10-amide ({PEG 10 kDa-Mal}-KKKKKKKKKK-NH2; reading uncertain; also: printed as PEG (10 KDa)-Mal-(Lys)10-amide) [PN934]”, the “% Cell-Uptake” value ([1]; peptide concentration 1 μM) is reported as 0.2%, the “% Cell-Uptake” value ([1]; peptide concentration 10 μM) is reported as 1.1% and the “% Cell-Uptake” value ([1]; peptide concentration 100 μM) is reported as 0.3%. The “% Cell Viability” value ([2]; peptide concentration 1 μM) was 98.3%, the “% Cell Viability” value ([2]; peptide concentration 10 μM) was 96.2% and the “% Cell Viability” value ([2]; peptide concentration 100 μM) was 97.4%.

For “PEG (10 KDa)-Mal-(Lys)20-amide ({PEG 10 kDa-Mal}-KKKKKKKKKKKKKKKKKKKK-NH2; reading uncertain) [PN928]”, the “% Cell-Uptake” value ([1]; peptide concentration 1 μM) was 3.9%, the “% Cell-Uptake” value ([1]; peptide concentration 10 μM) was 2.3% and the “% Cell-Uptake” value ([1]; peptide concentration 100 μM) was 3.2%. The “% Cell Viability” value ([2]; peptide concentration 1 μM) was 97.3%, the “% Cell Viability” value ([2]; peptide concentration 10 μM) was 98% and the “% Cell Viability” value ([2]; peptide concentration 100 μM) was 98.2%.

In the case of “PEG (2 KDa)-Mal-(Lys-His)10-amide ({PEG 2 kDa-Mal}-KHKHKHKHKHKHKHKHKHKH-NH2; reading uncertain) [PN939]”, the “intracellular delivery of siRNA” value [1] is reported as “effective intracellular delivery of siRNA without negatively impacting cell viability”, the “% Cell-Uptake” value ([1]; peptide concentration 1 μM) is reported as 66% and the MFI ([1]; peptide concentration 1 μM) is reported as 3.3. The “% Cell-Uptake” value ([1]; peptide concentration 10 μM) was 97%, the MFI ([1]; peptide concentration 10 μM) was 35.1 and the “% Cell-Uptake” value ([1]; peptide concentration 100 μM) was 97.3%. The MFI ([1]; peptide concentration 100 μM) was 3.33, the “% Cell Viability” value ([2]; peptide concentration 1 μM) was 98.6% and the “% Cell Viability” value ([2]; peptide concentration 10 μM) was 99.7%. For the same compound, the “% Cell Viability” value ([2]; peptide concentration 100 μM) was 99.1%.

For “PEG (2 KDa)-Mal-(Lys)10-amide ({PEG 2 kDa-Mal}-KKKKKKKKKK-NH2; reading uncertain; also: printed as PEG (2 KDa)-Mal-(Lys)10-amide) [PN933]”, the “% Cell-Uptake” value ([1]; peptide concentration 1 μM) was 0.3%, the “% Cell-Uptake” value ([1]; peptide concentration 10 μM) was 0.5% and the “% Cell-Uptake” value ([1]; peptide concentration 100 μM) was 0.2%. The “% Cell Viability” value ([2]; peptide concentration 1 μM) was 97.7%, the “% Cell Viability” value ([2]; peptide concentration 10 μM) was 98% and the “% Cell Viability” value ([2]; peptide concentration 100 μM) was 98%.

With “PEG (10 KDa)-Mal-(Lys-His)15-amide ({PEG 10 kDa-Mal}-KHKHKHKHKHKHKHKHKHKHKHKHKHKHKH-NH2; reading uncertain) [PN937]” the “intracellular delivery of siRNA” value [1] was “effective intracellular delivery of siRNA without negatively impacting cell viability”, the “% Cell-Uptake” value ([1]; peptide concentration 1 μM) was 54.7% and the MFI ([1]; peptide concentration 1 μM) was 3.18. For the same compound, the “% Cell-Uptake” value ([1]; peptide concentration 10 μM) was 92.6%, the MFI ([1]; peptide concentration 10 μM) was 6.41 and the “% Cell Viability” value ([2]; peptide concentration 1 μM) was 99%. The “% Cell Viability” value ([2]; peptide concentration 10 μM) was 99.4%.

For “PEG (10 KDa)-Mal-(Lys-His)10-amide ({PEG 10 kDa-Mal}-KHKHKHKHKHKHKHKHKHKH-NH2; reading uncertain) [PN940]”, the “intracellular delivery of siRNA” value [1] was “effective intracellular delivery of siRNA without negatively impacting cell viability”, the “% Cell-Uptake” value ([1]; peptide concentration 1 μM) was 69.9% and the MFI ([1]; peptide concentration 1 μM) was 4.81. For the same compound, the “% Cell-Uptake” value ([1]; peptide concentration 10 μM) was 70.6%, the MFI ([1]; peptide concentration 10 μM) was 2.54 and the “% Cell Viability” value ([2]; peptide concentration 1 μM) was 99.1%. For the same compound, the “% Cell Viability” value ([2]; peptide concentration 10 μM) was 98.4%.

For PEG (2 KDa)-Mal-(Lys)25-amide [PN925], the “% Cell-Uptake” value ([1]; peptide concentration 1 μM) was 5.2%, the “% Cell-Uptake” value ([1]; peptide concentration 10 μM) was 2.9% and the “% Cell-Uptake” value ([1]; peptide concentration 100 μM) was 2.2%. For the same compound, the “% Cell Viability” value ([2]; peptide concentration 1 μM) was 96.6%, the “% Cell Viability” value ([2]; peptide concentration 10 μM) was 97.8% and the “% Cell Viability” value ([2]; peptide concentration 100 μM) was 95.8%.

For “PEG (10 KDa)-Mal-(Lys)15-amide ({PEG 10 kDa-Mal}-KKKKKKKKKKKKKKK-NH2; reading uncertain; also: printed as PEG (10 KDa)-Mal-(Lys)15-amide) [PN931]”, the “% Cell-Uptake” value ([1]; peptide concentration 1 μM) was 0.6%, the “% Cell-Uptake” value ([1]; peptide concentration 10 μM) was 0.7% and the “% Cell-Uptake” value ([1]; peptide concentration 100 μM) was 0.5%. For the same compound, the “% Cell Viability” value ([2]; peptide concentration 1 μM) was 97%, the “% Cell Viability” value ([2]; peptide concentration 10 μM) was 97.7% and the “% Cell Viability” value ([2]; peptide concentration 100 μM) was 98.4%.

In the case of “PEG (2 KDa)-Mal-(Lys)15-amide ({PEG 2 kDa-Mal}-KKKKKKKKKKKKKKK-NH2; reading uncertain; also: printed as PEG (2 KDa)-Mal-(Lys)15-amide) [PN930]”, the “% Cell-Uptake” value ([1]; peptide concentration 1 μM) is reported as 0.2%, the “% Cell-Uptake” value ([1]; peptide concentration 10 μM) is reported as 1.5% and the “% Cell-Uptake” value ([1]; peptide concentration 100 μM) is reported as 0.8%. The “% Cell Viability” value ([2]; peptide concentration 1 μM) was 97.9%, the “% Cell Viability” value ([2]; peptide concentration 10 μM) was 97.2% and the “% Cell Viability” value ([2]; peptide concentration 100 μM) was 97.8%.

With PEG (10 KDa)-Mal-(Lys)25-amide [PN927] the “% Cell-Uptake” value ([1]; peptide concentration 1 μM) was 1.6%, the “% Cell-Uptake” value ([1]; peptide concentration 10 μM) was 0.8% and the “% Cell-Uptake” value ([1]; peptide concentration 100 μM) was 0.7%. The “% Cell Viability” value ([2]; peptide concentration 1 μM) was 95.6%, the “% Cell Viability” value ([2]; peptide concentration 10 μM) was 97% and the “% Cell Viability” value ([2]; peptide concentration 100 μM) was 97.3%.
